Measurements from PMC5738391, “Three classes of ligands each bind to distinct sites on the orphan G protein-coupled receptor GPR84” (Scientific Reports, 2017).

Experiments:
[1] = test system: GPR84-Gαi2 fusion protein; test: [35S]GTPγS binding, membranes expressing GPR84-Gαi2 fusion protein; assay type: biochemical, human; details: for direct agonism of GPR84, [35S]GTPγS binding: DIM analogs; for allosteric effect on concentration-response curves of orthosteric agonists incl. compound-1: increasing concentrations of analog
Text: The only previous study[3] designed to explore the mode of binding of ligands to GPR84 employed a fusion protein[31],[32] in which the G protein Gαi1 was linked in-frame to the C-terminal tail of GPR84. […] These studies indicate that following pertussis toxin treatment of cells expressing the GPR84-Cys^352Ile Gαi2 fusion protein all agonist-induced binding of [^35S]GTPγS reflects incorporation of nucleotide into the receptor-linked G protein α subunit.
(§1) Membranes were generated from Flp-In T-REx HEK293 cells treated with 100 ng/mL doxycycline to induce expression of the receptor construct of interest. Cells were washed with ice-cold phosphate-buffered saline, removed from dishes by scraping and centrifuged at 3000 rpm for 5 min at 4 °C. Pellets were resuspended in TE buffer (10 mM Tris-HCl, 0.1 mM EDTA; pH 7.5) containing a protease inhibitor mixture (Roche Applied Science, West Sussex, UK) and homogenized with a 5 ml hand-held homogenizer. This material was centrifuged at 1500 rpm for 5 min at 4 °C and the supernatant was further centrifuged at 50000 rpm for 45 min at 4 °C. The resulting pellet was resuspended in TE buffer and protein content was assessed using a BCA protein assay kit (Pierce, Fisher Scientific, Loughborough, UK).
(§2) Initially, 5 μg of generated membrane protein was pre-incubated for 15 min at 25 °C in assay buffer (20 mM HEPES, 5 mM MgCl2; 160 mM NaCl; 1 μM GDP; 0.05% fatty acid-free bovine serum albumin; pH 7.5) containing the indicated ligand concentrations. […] The reaction was then initiated with addition of [^35S]GTPγS (50 nCi per tube), and the reaction was terminated after 45 minutes incubation at 30 °C by rapid filtration through GF/C glass filters using a 24-well Brandel cell harvester (Alpha Biotech, Glasgow, UK). Unbound radioligand was removed from filters by three washes with ice-cold phosphate buffered saline (pH 7.4) and filters were dried for 2–3 h at room temperature. Dried filters were added to 3 mL of Ultima Gold^TM XR (PerkinElmer Life Sciences, Beaconsfield, UK) and [^35S]GTPγS binding was determined by liquid scintillation spectrometry.

[2] = target: T1, human GPR84 (FLAG-hGPR84-eYFP) (Homo sapiens, UniProt Q9NQS5); test: [35S]GTPγS binding, membranes of cells expressing FLAG-hGPR84-eYFP; assay type: biochemical
T1 construct: expressed in transfected cells
T1 sequence (Q9NQS5 whole entry): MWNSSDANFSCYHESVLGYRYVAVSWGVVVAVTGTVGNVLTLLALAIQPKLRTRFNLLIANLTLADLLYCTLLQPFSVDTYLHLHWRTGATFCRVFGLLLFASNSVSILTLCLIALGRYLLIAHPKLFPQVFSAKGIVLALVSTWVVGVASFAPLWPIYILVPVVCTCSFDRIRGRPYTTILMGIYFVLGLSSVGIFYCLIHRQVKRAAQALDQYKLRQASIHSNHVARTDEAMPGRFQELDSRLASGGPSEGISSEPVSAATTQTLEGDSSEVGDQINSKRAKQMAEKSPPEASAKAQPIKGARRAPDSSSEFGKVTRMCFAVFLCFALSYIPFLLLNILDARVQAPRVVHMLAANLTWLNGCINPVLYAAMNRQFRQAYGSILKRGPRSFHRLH
Description: as §1
(§3) The reaction was then initiated with addition of [^35S]GTPγS (50 nCi per tube), and the reaction was terminated after 45 minutes incubation at 30 °C by rapid filtration through GF/C glass filters using a 24-well Brandel cell harvester (Alpha Biotech, Glasgow, UK). […] Dried filters were added to 3 mL of Ultima Gold^TM XR (PerkinElmer Life Sciences, Beaconsfield, UK) and [^35S]GTPγS binding was determined by liquid scintillation spectrometry.
All data are presented as means ± SEM of at least three independent experiments. Data analysis and curve fitting was carried out using the GraphPad Prism software package version 5.0b (GraphPad, San Diego). […] In case of inhibition experiments with antagonists an equivalent analysis was followed to fit an inverse sigmoidal curve. To perform the statistical analysis of curve parameters, data from multiple experiments were fitted independently and resulting curve fit values were analysed with indicated tests. For radioligand binding data, saturation binding curves were generated by fitting the specific binding, which was obtained by subtracting non-specific from total binding, to a one site specific binding model that allows calculation of Kd values for the radioligand at wild type and mutant receptors. To determine affinity of unlabelled ligands, data obtained in displacement assays were fit to an inverse three parameter sigmoidal curve constrained by radioligand affinity and concentration to allow for Ki calculation.

[3] = target: T2, Arg^172Ala GPR84-Cys^352Ile Gαi2 fusion protein (Homo sapiens, UniProt Q9NQS5, R172A); test: [35S]GTPγS binding, Arg172Ala mutant fusion protein; assay type: biochemical
T2 construct: Cys352Ile Gαi2 (fusion partner, same polypeptide); expressed in transfected cells; host or cells: membranes of Flp-In T-REx 293 cells, doxycycline-induced
T2 sequence (Q9NQS5 2-396 R172A): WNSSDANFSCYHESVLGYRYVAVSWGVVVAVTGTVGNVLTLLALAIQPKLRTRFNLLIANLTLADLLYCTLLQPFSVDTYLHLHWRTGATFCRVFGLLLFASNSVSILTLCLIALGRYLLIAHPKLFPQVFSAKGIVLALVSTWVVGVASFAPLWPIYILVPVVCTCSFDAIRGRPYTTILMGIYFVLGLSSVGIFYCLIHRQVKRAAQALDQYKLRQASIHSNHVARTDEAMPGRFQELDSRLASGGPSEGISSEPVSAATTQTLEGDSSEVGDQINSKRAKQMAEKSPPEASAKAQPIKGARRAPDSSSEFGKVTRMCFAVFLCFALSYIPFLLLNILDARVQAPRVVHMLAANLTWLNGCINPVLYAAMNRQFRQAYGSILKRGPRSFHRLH
Text: To try to identify how a MCFA might interact with GPR84 we turned to homology modelling studies. Although GPR84 is not closely related to the other GPCRs that respond to either short chain (FFA2, FFA3) or long chain (FFA1, FFA4) fatty acids[8],[9], in each of the other cases the carboxylate of the fatty acid is co-ordinated by one or more arginine residues located at or near the extracellular surface[12]–[14]. […] As we have highlighted recently[9] GPR84 and the β2-adrenoceptor are only distantly related whilst, of the currently available atomic level GPCR structures, the orexin OX1 receptor[34] has highest overall sequence identity (31%) with GPR84. We, therefore, generated and employed a new homology model of GPR84 based on the transmembrane domain architecture of the OX1 receptor (Fig. 6). However, because ECL2 of GPR84 is very similar in sequence to that of rhodopsin (Fig. 6a), with 43% residue identity over this region, we incorporated this knowledge into the modelling process. In the resulting hybrid model (Fig. 6a) Arg^172 within ECL2 is pointing into the potential binding cavity within the helical bundle. This was not the case when Nikaido et al.,[3] employed the β2-adrenoceptor-based model, probably because the ECL2 sequences of the β2-adrenoceptor and GPR84 have no relatedness. […] To assess this we mutated Arg^172 to Ala within the setting of the GPR84-Cys^352Ile Gαi2 fusion protein. […] Equivalent results were obtained in studies in which the Arg^172Ala mutation was introduced into the FLAG-hGPR84-eYFP construct (Fig. 7b).
FLAG-humanGPR84-Gαi2 fusion proteins were constructed by replacing eYFP within the FLAG-humanGPR84-eYFP-pcDNA5/FRT/TO construct with sequence corresponding to Gαi2 or Cys^352Ile Gαi2 using NotI and XhoI restriction enzymes. Site-directed mutagenesis to generate point mutants of GPR84 was performed according to the QuikChange method (Stratagene, Cheshire, UK). The identity of all constructs was verified by nucleotide sequencing.
as §2

[4] = target: T3, Arg^172Lys GPR84-Cys^352Ile Gαi2 fusion protein (Homo sapiens, UniProt Q9NQS5, R172K); test: [35S]GTPγS binding, Arg172Lys mutant fusion protein; assay type: biochemical
T3 construct: Cys352Ile Gαi2 (fusion partner, same polypeptide); expressed in transfected cells; host or cells: membranes of Flp-In T-REx 293 cells, doxycycline-induced
T3 sequence (Q9NQS5 2-396 R172K): as the sequence (Q9NQS5 2-396 R172A) above, with A171K counted along it

[5] = target: T4, FLAG-Arg^174Ala hGPR84-eYFP (Homo sapiens, UniProt Q9NQS5, R174A); test: [35S]GTPγS binding, Arg174Ala mutant receptor; assay type: biochemical
T4 construct: expressed in transfected cells; host or cells: membranes of Flp-In T-REx 293 cells, doxycycline-induced
T4 sequence (Q9NQS5 whole entry R174A): as the sequence (Q9NQS5 whole entry) above, with R174A counted along it

[6] = target: GPR84-Cys^352Ile Gαi2 fusion protein (Homo sapiens, UniProt Q9NQS5); test: [35S]GTPγS binding, membranes expressing pertussis toxin-resistant GPR84-Cys352Ile Gαi2 fusion; operational model of allosteric modulation; assay type: biochemical; details: for measured potency compared between GPR84-Gαi2 and GPR84-Cys352Ile Gαi2 fusion constructs: [35S]GTPγS binding
GPR84-Cys^352Ile Gαi2 fusion protein, sequence (Q9NQS5 whole entry, the tested form may be a part): as the sequence (Q9NQS5 whole entry) above
GPR84-Cys^352Ile Gαi2 fusion protein, sequence (P04899 2-355 C352I, further chain): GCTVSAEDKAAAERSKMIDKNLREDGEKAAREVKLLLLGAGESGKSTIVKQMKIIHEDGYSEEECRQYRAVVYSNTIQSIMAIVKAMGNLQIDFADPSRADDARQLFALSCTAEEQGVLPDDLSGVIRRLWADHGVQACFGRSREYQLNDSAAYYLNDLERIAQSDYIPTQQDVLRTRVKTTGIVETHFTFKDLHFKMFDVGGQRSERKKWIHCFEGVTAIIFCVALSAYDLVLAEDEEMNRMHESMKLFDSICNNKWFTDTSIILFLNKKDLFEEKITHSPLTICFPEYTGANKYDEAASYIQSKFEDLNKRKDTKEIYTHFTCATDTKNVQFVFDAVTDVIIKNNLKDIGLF
Description: The only previous study[3] designed to explore the mode of binding of ligands to GPR84 employed a fusion protein[31],[32] in which the G protein Gαi1 was linked in-frame to the C-terminal tail of GPR84.
as §1, §3
To quantify the extent of allosteric interaction between pairs of ligands, data were analysed using an operational model of allosteric modulation described previously. The general version of this model can be depicted by the following equation: E=Em(τA[A](KB+αβ[B])+τB[B]KA)^n/([A]KB+KAKB+[B]KA+α[A][B])^n+(τA[A](KB+αβ[B])+τB[B]KA)^n where, E is the pharmacological effect, [A] and [B] are the orthosteric and allosteric compound concentrations at equilibrium, respectively; KA and KB are the equilibrium dissociation constants of the orthosteric and allosteric ligands respectively, denoting the binding affinities of the two ligands to the receptor; α is the binding cooperativity factor denoting the magnitude and direction of the allosteric effect on binding affinity of the orthosteric agonist to the receptor, β is the activation cooperativity factor representing the measure of the allosteric effect on orthosteric efficacy. τA and τB represent the intrinsic activity of the orthosteric and allosteric ligand, respectively. Em is the maximal possible system response and n denotes the slope factor of the transducer function. In case of global fitting of the allosterism data through this equation, Em and n values were always constrained and other parameters (KA, KB,τA, τB, α, β) were estimated.

[7] = agonist 3a, modulator compound-1
[8] = agonist compound-1, modulator 3a

COc1ccc2[nH]cc(C(c3cc(F)cc(F)c3)c3c[nH]c4ccc(OC)cc34)c2c1 [3c]
affinity for GPR84 (words, inferred from functional data) [1]: lack affinity
direct agonism of GPR84, [35S]GTPγS binding [1]: inactive
allosteric effect on concentration-response curves of orthosteric agonists incl. compound-1 [1]: unable to effect the position of the concentration-response curves

CCCCCCCCCC(=O)OC [methyl decanoate]
agonist activity, [35S]GTPγS binding ([2]; membranes of doxycycline-induced cells): completely inactive

O=c1nc(OCC2COCCO2)cc2n1CCc1cc(C#CCNc3ccccc3)ccc1-2 (stereo not shown) [Compound 107, 2-([1,4]dioxan-2-ylmethoxy)-9-(3-phenylamino-prop-1-ynyl)-6,7-dihydro-pyrimido[6,1-a]isoquinolin-4-one]
ability to limit [35S]GTPγS binding induced by EC80 concentrations of C10 (50 μM), embelin (3 μM) and DIM (5 μM) [2]: more potent than 161
mode of blockade of DIM agonism ([2]; higher antagonist concentrations reduced maximal effect of DIM): non-competitive mode of blockade
mode of blockade of embelin effects ([2]; increasing concentrations of antagonist decreased maximal effect of embelin): non-competitive manner
potency to block DIM-stimulated [35S]GTPγS binding, Arg172Ala versus GPR84-Cys352Ile Gαi2 fusion [3]: equal potency

CCCCCCCCCCCC1=C(O)C(=O)C=C(O)C1=O [embelin, 2,5-dihydroxy-3-undecyl-2,5-cyclohexadiene-1,4-dione]
agonist response at Arg172Lys mutant [4]: eliminated response
effect of Arg174Ala mutation on agonist function or potency [5]: did not affect function or potency
agonist response at Arg172Ala mutant [3]: no response
measured potency compared between GPR84-Gαi2 and GPR84-Cys352Ile Gαi2 fusion constructs [6]: indistinguishable
logα ([6]; agonist embelin, modulator DIM): 1.22 ± 0.05
logβ ([6]; agonist embelin, modulator DIM): 0.8 ± 0.02

O=[N+]([O-])c1ccc2[nH]cc(Cc3c[nH]c4ccc([N+](=O)[O-])cc34)c2c1 [6a]
direct agonism of GPR84, [35S]GTPγS binding [1]: direct agonism

2-((S)-1-[1,4]dioxan-2-ylmethoxy)-9-(tetrahydro-pyran-4-yl-methoxymethyl)-6,7-dihydro-pyrimido[6,1-a]isoquinolin-4-one [Compound 161]
ability to limit [35S]GTPγS binding induced by EC80 concentrations of C10 (50 μM), embelin (3 μM) and DIM (5 μM) [2]: in a concentration-dependent fashion

COc1ccc2[nH]cc(Cc3c[nH]c4ccc(OC)cc34)c2c1 [3a]
direct agonism of GPR84, [35S]GTPγS binding [1]: direct agonism
allosteric effect on concentration-response curves of orthosteric agonists incl. compound-1 [1]: as large positive allosteric effects on the potency of the orthosteric agonist ligands as did DIM
logα [6, 7]: 1.43 ± 0.08
logβ [6, 7]: 1.2 ± 0.06
Kd ([6]; pKA (estimated for the agonist), agonist 3a, modulator compound-1): 14.8 µM
Kb ([6]; pKB (estimated for the modulator), modulator 3a, agonist compound-1): 10 µM

COc1ccc2[nH]cc(C(c3ccc(C)cc3)c3c[nH]c4ccc(OC)cc34)c2c1 [3b]
direct agonism of GPR84, [35S]GTPγS binding [1]: inactive

CCCCCCSc1nc(O)cc(O)n1 [compound-1, 2-(hexylthiol)pyridimine-4,6 diol]
agonist response at Arg172Lys mutant [4]: eliminated response
effect of Arg174Ala mutation on agonist function or potency [5]: did not affect function or potency
agonist response at Arg172Ala mutant [3]: no response
measured potency compared between GPR84-Gαi2 and GPR84-Cys352Ile Gαi2 fusion constructs [6]: indistinguishable
logα [6, 8]: 1.75 ± 0.05
logβ [6, 8]: -0.1 ± 0.02
logβ ([6]; agonist compound-1, modulator DIM): -0.2 ± 0.05
logα ([6]; agonist compound-1, modulator DIM, operational model of allosterism): 2.1 ± 0.07
